Results: patent US20080031944A1, “Stabilization of lorazepam” (CIMA LABS INC., priority 2006, published 2008)

Assay: Stability of lorazepam with ODT excipients and coatings

O=C1Nc2ccc(Cl)cc2C(c2ccccc2Cl)=NC1O (centres unmarked) [lorazepam, 7-chloro-5-(2-chlorophenyl)-1,3-dihydro-3-hydroxy-2H-1,4-benzodiazepin-2-one]
stability when coated (lorazepam coated with EUDRAGIT® E-100): unstable | stability with ODT excipients (with mannitol and super disintegrants such as crosslinked PVP): unstable
